From publication PMC11077815, “Synthesis and antitumor activity of dolutegravir derivatives bearing 1,2,3-triazole moieties” (BMC Chemistry, 2024) come the findings set out here.

Holding throughout (format): cell-based, Human
In data set [1] the test system is H460. Briefly: CCK8 cell viability assay, H460. Particulars: for Cell viability (100%): H460, 20 µM, 48 h, CCK8, control = 100%; for IC50: H460, 48 h, CCK8, mean ± SE. Here is the method:
At first, CCK8 assay was carried out to evaluate the anti-proliferative activity of dolutegravir-1,2,3-triazole derivatives against different cancer cell lines. The results of cell viability of three lung cancer cell lines A549, PC-9 and H460 in the presence of compounds 9 and 10 are summarized in Table 2. Cells were treated with different compounds at the concentration of 20 µM for 48 h. […] Human lung cancer cell lines A549, PC-9 and H460 were all obtained from ATCC. Cells were cultured in DMEM or RPMI 1640 medium containing 10% FBS and 1% penicillin/streptomycin at 37 °C with a 5% CO2-humidified atmosphere. CCK8 assay was used to measure cell viability. Cells with a density of 1 × 10^4 cells/well were seeded on the 96-well plates. After adhesion, cells were treated with different diluted compounds or vehicle control DMSO and continue cultured for 48 h. Then, CCK8 reagent was added for one hour incubation at 37 °C with 5% of CO2. Absorbance was measured using a microplate spectrophotometer (Thermo) at 450 nm. The ratio of cell viability of control was taken as 100%. […] Then IC50 of the compounds were investigated using the prism statistical software.
In general terms: Tetrazolium assays rely on reduction of a dye to a coloured formazan, in cell work by metabolically active cells.

Data set [2] concerns PC-9. Briefly: Plate clone formation assay, PC-9. Particulars: PC9, 0, 2, 4, 8, 16 and 32 µM, 48 h. Here is the method:
(§1) The plate clone formation experiments were also carried outto further confirm the effects of dolutegravir derivatives on cell proliferation. Compounds 9e and 9p with different concentrations (0, 2, 4, 8, 16 and 32 µM) were added to the cells.
(§2) PC-9 and H460 cells were seeded into 6-well plates at a density of 100–500 cells/well. After 10 days culture, cells were added with 9e or 9p at different concentrations (0, 2 µM, 4 µM, 8 µM, 16 µM, 32 µM) for 48 h. Then cells were fixed by 4% paraformaldehyde and stained by Giemsa dye. An optical microscope was used to photograph cells and count the clone numbers.

Data set [3] has as its system H460. Briefly: Plate clone formation assay, H460. Particulars: H460, 0, 2, 4, 8, 16 and 32 µM, 48 h. Here is the method:
as §1, §2

The subject of data set [4] is PC-9. The experiment in a line: Apoptosis assay (Annexin V-FITC/PI flow cytometry), PC-9. Particulars: 48 h. Here is the method:
Further, the effects of 9e and 9p on the apoptosis of tumor cells were studied to get details of the suppression of cell proliferation caused by these compounds. PC-9 and H460 cells treated with different concentrations of 9e or 9p were stained with Annexin V-FITC and PI, and the numbers of apoptosis cells were analyzed by the flow cytometry.
PC-9 and H460 cells were cultured in 6-well plates with a density of 3 × 10^5 cells/well. Different concentrations of 9e or 9p were added to cells for 48 h respectively. The concentrations were 0, 2, 4, and 8 µM for PC-9 cells and 0, 4, 8 and 16 µM for H460 cells. After treatment, Annexin V-FITC Apoptosis Detection Kit was used to determine the apoptotic ratio and FlowJo software v10 was used to analyze of the results.
In general terms: In flow cytometry, cells or beads pass a laser one at a time.

Data set [5] deals with PC-9. Briefly: Cell cycle assay (PI staining, flow cytometry), PC-9. Particulars: 48 h. Here is the method: (§3) Cancer cell lines PC-9 and H460 were then treated for 48 h with 9e or 9p at different concentrations to investigate the effects of these compounds on regulating the cell cycle. Cell cycle distributions were analyzed using the flow cytometry technique.
(§4) PC-9 and H460 cells were cultured in 6-well plates with a density of 3 × 10^5 cells/well. Cells were treated with different concentrations (0, 4, and 8 µM for PC-9 cells and H460 cells) of 9e or 9p for 48 h respectively. Then the cell cycle was determined by PI staining with the flow cytometer.

Data set [6] deals with H460. The experiment in a line: Cell cycle assay (PI staining, flow cytometry), H460. Particulars: H460, 48 h, 4 and 8 µM. Here is the method:
as §3, §4

The subject of data set [7] is PC-9. Briefly: Cellular ROS measurement (DCFH-DA), PC-9. Particulars: PC-9, 5 µM and 10 µM, 24 h, DCFH-DA staining. Here is the method: (§5) Reactive oxygen species could induce cell death and suppress cell growth and proliferation. To assess the role of compounds 9e and 9p in ROS generation, different cancer cell lines were treated with 9e or 9p for 24 h. DCFDA was used to stain cells and ROS was detected with fluorescent microscope.
(§6) PC-9 and H460 cells were cultured in 96-well plates in a density of 5 × 10^3 cells/well. Different concentrations (0, 5 and 10 µM) of 9e or 9p were added to cells respectively for 24 h. After treatment, cells were stimulated with 10 µM DCFH-DA for 30 min at 37 °C, then observed and photographed using a fluorescent microscope.

The test system of data set [8] is H460. The experiment in a line: Cellular ROS measurement (DCFH-DA), H460. Particulars: H460, 5 µM and 10 µM, 24 h, DCFH-DA staining. The method, then: as §5, §6
A further data set relates to CyclinE. The experiment in a line: Western blot of CyclinE in PC-9 cells. Particulars: PC-9, 0, 2, 4, 8 µM, 48 h. The source says: To determine the role of compounds 9e and 9p on regulating the development of cell proliferation, expressions of key proteins which were involved in cell growth progresses such as autophagy, apoptosis, cell cycle and DNA damage were examined. Ubiquitin like molecule light chain 3 (LC3) is a key marker of autophagy. […] Caspase3, which is one of the key proteins in regulating apoptosis, however, was not changed in tumor cells after treated with 9e or 9p. Cell cycle regulation proteins such as CyclinD, CyclinE or β-catenin were also not affected when PC-9 was treated with 9e or 9p. Further, H2AX variant histone (γ-H2AX), which was responsible for DNA damage, was also not affected when PC-9 were treated with 9e or 9p.
Protein expression levels were measured by western blot. PC-9 cells were cultured in 12-well plates and different concentrations (0, 2, 4, 8µM) of 9e and 9p were added for 48 h. Proteins were extracted from whole cells using radioimmunoprecipitation assay (RIPA). Buffer containing protease/phosphatase inhibitor cocktail (CST). Sodium dodecyl sulfate (10-15%) polyacrylamide gel electrophoresis and nitrocellulose membranes (Millipore) were used to separate and collect proteins. Antibodies used include, LC3 (3868s, CST), Caspase3 (9662, CST), cyclin D (2922s, CST), cyclin E (20808s, CST), γ-H2AX (9718s, CST), and β-actin (4967s, CST).
Background: In western blotting, separated proteins are transferred to a membrane and probed.

As usually defined, the IC50 is the midpoint of a concentration-inhibition curve. Low values mean inhibition by little substance, high ones a need for much substance. As for `COc1c2n(cc(C(=O)Nc3cccc(-c4cn(-c5cccc([N+](=O)[O-])c5C)nn4)c3)c1=O)C[C@@H]1OCC[C@@H](C)N1C2=O` [Compound 9e], in the data set on H460 [1], the “Cell viability (100%)” value was 30.94%. The molecule also showed a concentration for half-maximal inhibition (IC50) in the data set with H460 [1] of 11.8 ± 2.31 µM. For the same molecule, the “plate clone formation (cell proliferation)” value in the data set with PC-9 [2] is “anti-proliferative activity against cell lines PC9 and H460 in a dose-dependent manner”; in the data set with H460 [3], “anti-proliferative activity against cell lines PC9 and H460 in a dose-dependent manner”. The cell apoptosis entry is “little influence” in the data set with PC-9 [4] (PC-9, 2 µM or 4 µM) and “significant effects on cell apoptosis” with PC-9 [4] (PC-9, 8 µM). Besides, the “effect on cell cycle” value in the data set with PC-9 [5] (PC-9, 4 µM) is “moderate effects on cell cycle”; in the data set with PC-9 [5] (PC-9, 8 µM), “decreased G0/G1 phase and increased S and G2/M phase”; in the data set on H460 [6], “increased G2/M phase and had little influences on G0/G1 or S phase”. Further, the ROS generation result in the data set on PC-9 [7] and in the data set on H460 [8] was “significantly increased” in each case. In the data set on CyclinE, the CyclinE expression entry is recorded as “not affected”.

As for `COc1c2n(cc(C(=O)Nc3cccc(-c4cn(-c5cccc(C(F)(F)F)c5)nn4)c3)c1=O)C[C@@H]1OCC[C@@H](C)N1C2=O` [Compound 9p], the “Cell viability (100%)” value in the data set with H460 [1] worked out at 5.63%. In the data set on H460 [1], this molecule yielded a 50% inhibitory concentration (IC50) of 10.7 ± 0.48 µM. In addition, the “plate clone formation (cell proliferation)” value is “anti-proliferative activity against cell lines PC9 and H460 in a dose-dependent manner” in the data set on PC-9 [2]; “anti-proliferative activity against cell lines PC9 and H460 in a dose-dependent manner” with H460 [3]. The cell apoptosis entry with PC-9 [4] (PC-9, 2 µM or 4 µM) is “little influence”; with PC-9 [4] (PC-9, 8 µM), “significant effects on cell apoptosis”. The “effect on cell cycle” value in the data set with PC-9 [5] (PC-9, 4 µM and 8 µM) is “induced an S and G2/M cell cycle arrest”; in the data set with H460 [6], “significantly decrease the S phase”. Besides, the ROS generation result in the data set on PC-9 [7] and in the data set with H460 [8] was “significantly increased” throughout. Also, the CyclinE expression result in the data set with CyclinE is listed as “not affected”.
